Data reported in ChEMBL document CHEMBL3046171, “Synthesis and biological evaluation of gallic acid analogs” (Med Chem Res, 2013).
The source made the active and inactive calls. The calls are words filed in the database; no cut-off is given here.

Tests used:
CHO [1] = assay: Antioxidant activity in Cricetulus griseus CHO (Chinese hamster ovary) cells assessed as proportion of H2O2-induced chromosomal aberrations bearing cells at 200 uM pre-incubated with H202 for 1 hr prior to cell addition by Giemsa staining; assay type: functional
CHO [2] = assay: Antioxidant activity in Cricetulus griseus CHO (Chinese hamster ovary) cells assessed as protection against H2O2-induced chromosomal aberrations treated for 15 min prior to H2O2 addition measured after 2 hr by Giemsa staining; assay type: functional, cell-based
CHO [3] = assay: Genotoxicity in Cricetulus griseus CHO (Chinese hamster ovary) cells assessed as increase in frequencies of sister chromatid exchange bearing cells at 0.5 to 2 mM by fluorescence-plus-Giemsa technique; assay type: toxicity, cell-based; conditions: 2000 µM
CHO [4] = assay: Genotoxicity in Cricetulus griseus CHO (Chinese hamster ovary) cells assessed as increase in frequencies of chromosomal aberrations bearing cells at 0.5 to 2 mM by Giemsa staining; assay type: toxicity, cell-based; conditions: 2000 µM
CHO [5] = assay: Genotoxicity in Cricetulus griseus CHO (Chinese hamster ovary) cells assessed as slight increase in frequencies of sister chromatid exchange bearing cells at 200 uM by fluorescence-plus-Giemsa technique; assay type: toxicity, cell-based
CHO [6] = assay: Genotoxicity in Cricetulus griseus CHO (Chinese hamster ovary) cells assessed as effect on frequencies of sister chromatid exchange bearing cells at <200 uM by fluorescence-plus-Giemsa technique; assay type: toxicity, cell-based
CHO [7] = assay: Genotoxicity in Cricetulus griseus CHO (Chinese hamster ovary) cells assessed as effect on frequencies of chromosomal aberrations bearing cells at <200 uM by Giemsa staining; assay type: toxicity, cell-based
CHO [8] = assay: Cytotoxicity against Cricetulus griseus CHO (Chinese hamster ovary) cells assessed as frequency of third generation of mitotic cells at 1000 uM treated for 3 hr by BrdU assay (reference value: 0%); assay type: cell-based
CHO [9] = assay: Cytotoxicity against Cricetulus griseus CHO (Chinese hamster ovary) cells assessed as frequency of third generation of mitotic cells at 200 uM treated for 3 hr by BrdU assay (reference value: 0%); assay type: cell-based
CHO [10] = assay: Cytotoxicity against Cricetulus griseus CHO (Chinese hamster ovary) cells assessed as frequency of third generation of mitotic cells at 100 uM treated for 3 hr by BrdU assay (reference value: 0%); assay type: cell-based
CHO [11] = assay: Cytotoxicity against Cricetulus griseus CHO (Chinese hamster ovary) cells assessed as frequency of third generation of mitotic cells at 50 uM treated for 3 hr by BrdU assay (reference value: 0%); assay type: cell-based
CHO [12] = assay: Cytotoxicity against Cricetulus griseus CHO (Chinese hamster ovary) cells assessed as frequency of second generation of mitotic cells at 1000 uM treated for 3 hr by BrdU assay (reference value: 90%); assay type: cell-based
CHO [13] = assay: Cytotoxicity against Cricetulus griseus CHO (Chinese hamster ovary) cells assessed as frequency of second generation of mitotic cells at 200 uM treated for 3 hr by BrdU assay (reference value: 90%); assay type: cell-based
CHO [14] = assay: Cytotoxicity against Cricetulus griseus CHO (Chinese hamster ovary) cells assessed as frequency of second generation of mitotic cells at 100 uM treated for 3 hr by BrdU assay (reference value: 90%); assay type: cell-based
CHO [15] = assay: Cytotoxicity against Cricetulus griseus CHO (Chinese hamster ovary) cells assessed as frequency of second generation of mitotic cells at 50 uM treated for 3 hr by BrdU assay (reference value: 90%); assay type: cell-based
CHO [16] = assay: Cytotoxicity against Cricetulus griseus CHO (Chinese hamster ovary) cells assessed as frequency of first generation of mitotic cells at 1000 uM treated for 3 hr by BrdU assay (reference value: 10%); assay type: cell-based
CHO [17] = assay: Cytotoxicity against Cricetulus griseus CHO (Chinese hamster ovary) cells assessed as frequency of first generation of mitotic cells at 200 uM treated for 3 hr by BrdU assay (reference value: 10%); assay type: cell-based
CHO [18] = assay: Cytotoxicity against Cricetulus griseus CHO (Chinese hamster ovary) cells assessed as frequency of first generation of mitotic cells at 100 uM treated for 3 hr by BrdU assay (reference value: 10%); assay type: cell-based
CHO [19] = assay: Cytotoxicity against Cricetulus griseus CHO (Chinese hamster ovary) cells assessed as frequency of first generation of mitotic cells at 50 uM treated for 3 hr by BrdU assay (reference value: 10%); assay type: cell-based
CHO [20] = assay: Cytotoxicity against Cricetulus griseus CHO (Chinese hamster ovary) cells assessed as proliferative replication index at 1000 uM treated for 3 hr by BrdU assay relative to untreated control (reference value: 100%); assay type: cell-based
CHO [21] = assay: Cytotoxicity against Cricetulus griseus CHO (Chinese hamster ovary) cells assessed as proliferative replication index at 200 uM treated for 3 hr by BrdU assay relative to untreated control (reference value: 100%); assay type: cell-based
CHO [22] = assay: Cytotoxicity against Cricetulus griseus CHO (Chinese hamster ovary) cells assessed as proliferative replication index at 100 uM treated for 3 hr by BrdU assay relative to untreated control (reference value: 100%); assay type: cell-based
CHO [23] = assay: Cytotoxicity against Cricetulus griseus CHO (Chinese hamster ovary) cells assessed as proliferative replication index at 50 uM treated for 3 hr by BrdU assay relative to untreated control (reference value: 100%); assay type: cell-based
CHO [24] = assay: Cytotoxicity against Cricetulus griseus CHO (Chinese hamster ovary) cells assessed as mitotic index at 1000 uM treated for 3 hr by Giemsa staining based light microscopic analysis relative to untreated control (reference value: 100%); assay type: cell-based
CHO [25] = assay: Cytotoxicity against Cricetulus griseus CHO (Chinese hamster ovary) cells assessed as mitotic index at 500 uM treated for 3 hr by Giemsa staining based light microscopic analysis relative to untreated control (reference value: 100%); assay type: cell-based
CHO [26] = assay: Cytotoxicity against Cricetulus griseus CHO (Chinese hamster ovary) cells assessed as mitotic index at 200 uM treated for 3 hr by Giemsa staining based light microscopic analysis relative to untreated control (reference value: 100%); assay type: cell-based
CHO [27] = assay: Cytotoxicity against Cricetulus griseus CHO (Chinese hamster ovary) cells assessed as mitotic index at 100 uM treated for 3 hr by Giemsa staining based light microscopic analysis relative to untreated control (reference value: 100%); assay type: cell-based
CHO [28] = assay: Cytotoxicity against Cricetulus griseus CHO (Chinese hamster ovary) cells assessed as mitotic index at 50 uM treated for 3 hr by Giemsa staining based light microscopic analysis relative to untreated control (reference value: 100%); assay type: cell-based

Structure (SMILES)	Activity (CHO [1]) [%]	Activity (CHO [2])	Activity (CHO [3])	Activity (CHO [4])	Activity (CHO [5])	Activity (CHO [6])	Activity (CHO [7])	Activity (CHO [8]) [%]	Activity (CHO [9]) [%]	Activity (CHO [10]) [%]	Activity (CHO [11]) [%]	Activity (CHO [12]) [%]	Activity (CHO [13]) [%]	Activity (CHO [14]) [%]	Activity (CHO [15]) [%]	Activity (CHO [16]) [%]	Activity (CHO [17]) [%]	Activity (CHO [18]) [%]	Activity (CHO [19]) [%]	Activity (CHO [20]) [%]	also measured
COCCc1cc(O)c(O)c(O)c1	5	Active	Toxic	Toxic	Toxic	Non-toxic	Non-toxic	0	0	0	0	0	66	82	94	0	34	18	6	0	Activity (CHO [21]): 87%; Activity (CHO [22]): 96%; Activity (CHO [23]): 102%; Activity (CHO [24]): 0%; Activity (CHO [25]): 15.6%; Activity (CHO [26]): 87.7%; Activity (CHO [27]): 80.8%; Activity (CHO [28]): 79.1%
OCCc1cc(O)c(O)c(O)c1 [3,4,5-TRIHYDROXYPHENETHYL ALCOHOL]	5	Active	Toxic	Toxic	Toxic	Non-toxic	Non-toxic	0	0	0	0	0	50	75	92	0	50	25	8	0	Activity (CHO [21]): 79%; Activity (CHO [22]): 92%; Activity (CHO [23]): 100%; Activity (CHO [24]): 0%; Activity (CHO [25]): 4.3%; Activity (CHO [26]): 58.3%; Activity (CHO [27]): 99.1%; Activity (CHO [28]): 96.5%
